These results are taken from patent US6911446B2, “Methods of modulating serine/threonine protein kinase function with quinazoline-based compounds” (Sugen, Inc., priority 1997, dated 2005).

pIC50: −log10 of the molar value.

In this assay the test system is A549 human lung carcinoma cells. As to the kind of experiment: Growth of A549 cells (SRB). It is filed as cell-based. Here is the method:
The following assay measures growth rates for A549 cells. The purpose of the assay is to determine the effects of compounds on the growth of A549 human lung carcinoma cells. A549 cells are readily accessible from commercial sources, such as ATCC (CCL185).
• 96-well flat bottom sterile plates • 96-well round bottom sterile plates • sterile 25 mL or 100 mL reservoir • pipets, multi-channel pipetman • sterile pipet tips • sterile 15 mL and 50 mL tubes Reagents: • 0.4% SRB in 1% acetic acid • 10 mM Tris base • 10% TCA • 1% acetic acid • sterile DMSO (Sigma) • compound in DMSO (100 mM or less stock solution) • Trypsin-EDTA (GIBCO BRL) Cell Line and Growth Medium: • A549 human lung carcinoma cells (ATCC CCL185) • 10% fetal calf serum in Ham's F12-K Protocol: Day 0: Cell Plating:
This part of assay is carried out in a laminar flow hood. • 1. Trypsinize cells. Transfer 200 μL of cell suspension to 10 mL of isotone. Count cells with a Coulter Counter. • 2. Dilute cells in growth medium to 20,000 cell/mL. Transfer 100 μL of cells to each well in a 96-well flat bottom plate to give 2000 cells/well. • 3. Use half of plate (4 rows) for each compound and quadruplicate wells for each compound concentration, and a set of 4 wells for medium control. • 4. Gently shake plates to allow for uniform attachment of the cells. • 5. Incubate the plates at 37° C. in a 10% CO2 incubator. Day 1: Addition of Compound:
This part of assay is carried out in a laminar flow hood. • 1. In a 96 well-round bottom plate, add 120 μL of growth medium containing 2×final %DMSO found in highest screening concentration of compound to columns 1 to 11. For example, if the highest screening concentration is 100 μM, and this is made from a 100 mM stock, 1×DMSO is 0.1%, so 2×DMSO is 0.2%. This plate is used to titrate out the compound, 4 rows per compound. • 2. In a sterile 15 mL tube, make a 2×solution of the highest screening concentration of compound in growth medium plus 2×DMSO. 1 mL per cell line is needed. The starting concentration of the compound is usually 100 μM but this concentration may vary depending upon the solubility of the compound. • 3. Transfer 240 μL of the 2×starting compound solution to quadruplicate wells in column 12 of the 96-well round bottom plate. Do 1:2 serial dilutions across the plate from right to left by transferring 120 μL from column 12 to column 11, column 11 to 10 and so on through column 2. Transfer 100 μL of compound dilutions, and 100 μL of medium in column 1, onto 100 μL medium on cells in corresponding wells of 96-well flat bottom plate. Total volume per well should be 200 μL. • 4. Return the plate to the incubator and incubate for 3 days. Day 5: Development of Assay
This part of assay is carried out on the bench. • 1. Aspirate or pour off medium. Add 200 μL cold 10% TCA to each well to fix cells. Incubate plate for at least 60 min. at 4° C. • 2. Discard TCA and rinse wells 5 times with tap water. Dry plates upside down on paper towels. • 3. Stain cells with 100 μL/well 0.4% SRB for 10 min. • 4. Pour off SRB and rinse wells 5 times with 1% acetic acid. Dry plates completely upside down on paper towels. • 5. Solubilize dye with 100 μL/well 10 mM Tris base for 5-10 min. on shaker. • 6. Read plates on Dynatech ELISA Plate Reader at 570 nm with reference at 630 nm.

For orientation: pIC50 means the negative decadic logarithm of the IC50, by convention in mol/L.

`COc1cccc(Oc2cccc3nc(N)nc(N)c23)c1` [Compound A-23, 2,4-Diamino-5-(3-methoxyphenoxy)quinazoline] showed a negative-log IC50 (pIC50) of 4.74.

Consider `Nc1nc(N)c2c(Oc3ccc(F)cc3)cccc2n1` [Compound A-7, 2,4-Diamino-5-(4-fluorophenoxy)quinazoline], for which the pIC50 was 4.75.

For `Nc1ncnc2cccc(Oc3ccc(OCc4ccccc4)cc3)c12` [Compound A-28, 4-Amino-5-(4-benzyloxyphenoxy)quinazoline], the pIC50 is 4.49.

`Nc1nc(N)c2c(Oc3ccccc3)cccc2n1` [Compound A-1, 2,4-Diamino-5-phenoxyquinazoline] had a pIC50 of 4.80.

Regarding `CC(C)(C)c1ccc(Oc2cccc3nc(N)nc(N)c23)cc1` [Compound A-8, 2,4-Diamino-5-(4-tert-butylphenoxy)quinazoline], the pIC50 was 4.11.

`COc1ccccc1Oc1cccc2nc(N)nc(N)c12` [Compound A-22, 2,4-Diamino-5-(2-methoxyphenoxy)quinazoline] showed a pIC50 of 4.59.
